# Measured values from patent EP1019392B1, “TRICYCLIC AMIDES USEFUL FOR INHIBITION OF G-PROTEIN FUNCTION AND FOR TREATMENT OF PROLIFERATIVE DISEASES” (SCHERING CORPORATION, priority 1995, dated 1997).
# How the values were obtained:
# [1] = test system: DLD-1 (human colon carcinoma cells, ATCC # CCL 221); experiment: In Vivo Anti-Tumor Studies, subcutaneous DLD-1 tumors; parameters: species or system athymic nu/nu female mice; conditions: Mus musculus, DLD-1, po, QID, 4 weeks, range over the listed compounds
# Text: Tumor cells (5 X 10^5 to 8 X 10^6) of DLD-1 (human colon carcinoma cells, ATCC # CCL 221) are innolculated subcutaneously into the flank of 5-6 week o;d athymic nu/nu female mice.
# Human tumor cells = experiment: Soft Agar Assay (anchorage-independent growth); type: cell-based; conditions: range over 19 tumor cell lines (K ras NIH 3T3, H ras NIH 3T3, HTB 177, HTB 173, A549, HTB 175, HTB 119, HTB 183, HPAF II, MCF-7, HBL100, Du4475, MDA MB 468, DU 145, MDA MB453, BT474, PC3, DLD I, AsPc-1), read-out: IC50 for each cell line
# [2] = test system: SW620-BAG human colon carcinoma cells expressing an activated K-ras gene; experiment: Cell Mat Assay, SW620 tumor cells; type: cell-based; conditions: Homo sapiens, SW-620, Mat assay
# [3] = test system: Ras-CVLS processing in COS monkey kidney cells; experiment: COS cell assay: inhibition of Ras-CVLS processing (Western blot); type: cell-based; conditions: Primates, COS
# [4] = test system: DLD-1-BAG human colon carcinoma cells expressing as activated K-ras gene; experiment: Cell Mat Assay, DLD-1 tumor cells; type: cell-based; conditions: Homo sapiens, DLD-1, Mat assay
# [5] = test system: Normal human HEPM fibroblasts; experiment: Cell Mat Assay, normal cell mat; type: cell-based; conditions: normal monolayer
# [6] = test system: T24-BAG4 human bladder carcinoma cells expressing an activated H-ras gene; experiment: Cell Mat Assay, T24 tumor cells; type: cell-based; conditions: Homo sapiens, read-out: Tumor (T-24) IC50
structure (smiles),measurement,setting,value
NC(=O)N1CCC(CC(=O)N2CCC(C3c4ncc(Br)cc4CCc4cc(Cl)cc(Br)c43)CC2)CC1 (centres unmarked) [Example 10],inhibition in vivo at 10 mg/kg,[1]; 10 mg/kg p.o.,7 to 50%
same,inhibition in vivo at 50 mg/kg,[1]; 50 mg/kg p.o.,35.4 to 83%
same,IC50,Human tumor cells,0.04 to 3 µM
same,IC50,[2],3.1 µM
same,IC50,[3],< 0.025 µM
same,IC50,[4],< 1.6 µM
same,IC50,[5],> 25 µM
same,IC50,[6],< 1.6 µM
